Assay results reported in PMC11902257, “Antiprotozoal Aminosteroids from Pachysandra terminalis” (Molecules, 2025).
Where “and” joins values, the source holds several entries; their conditions need not be identical. Equal values may be shown once. Read-outs that look alike come from different tables or passages of the source.

Experiments:
Type in all cases: cell-based
[1] = system: Plasmodium falciparum (Pf) NF54 strain; experiment: in vitro antiplasmodial assay, 3H-hypoxanthine incorporation, erythrocytic stages; settings: for SI (Pf): Selectivity index IC50(Cytotox)/IC50(Pf)
Method: Plasmodium falciparum (Pf): Tests were performed against erythrocytic stages of the drug-sensitive NF54 strain. The NF54 strain was obtained from F. Hoffmann-La Roche Limited (Basel, Switzerland). The strain NF54 was originally derived from a patient living near Schiphol Airport, Amsterdam, who had never left the Netherlands. The assay was performed using a 3H-hypoxanthine incorporation assay. Serial compound dilutions were prepared with the medium as indicated above and then added in 96-well plates to parasite cultures incubated in the medium previously described, consisting of RPMI 1640 supplemented with 0.5% ALBUMAX® II, 25 mM Hepes, 25 mM NaHCO3 (pH 7.3), 0.36 mM hypoxanthine, and 100 μg/mL neomycin. The plates were incubated in a humidified atmosphere at 37 °C, 4% CO2, 3% O2, and 93% N2. After 48 h, 0.25 μCi of 3H-hypoxanthine was added to each well. Incubation was continued under identical conditions for a further 24 h. The plates were then harvested using a Betaplate™ cell harvester (Wallac, Zurich, Switzerland). The red blood cells were transferred onto a glass fiber filter and washed with distilled H2O. After drying, filters were inserted into a plastic foil with 10 mL of scintillation fluid and counted with a Betaplate™ liquid scintillation counter (Wallac, Zurich, Switzerland). Data were treated according to [44] (see below). The positive control was chloroquine.
(§1) Bioassay data and statistical methods: In all cases, the readout data were plotted in Microsoft Excel. Half-maximal inhibitory concentrations (IC50 values) were calculated from the sigmoidal dose-response curves by linear regression. Two independent replicates of the assay were performed in all cases, and the results were expressed as arithmetic mean ± deviation from the mean.

[2] = cytotoxicity against L-6 rat skeletal myoblasts, resazurin
Method: Cytotoxicity against L-6 rat skeletal myoblasts: The L6 rat skeletal myoblast cell line used for cytotoxicity tests was obtained from the American Type Culture Collection (ATCC, Manassas, VA, USA) as ATCC-CRL-1458 [50]. The cells were cultivated in RPMI 1640 medium supplemented with 1% L-glutamine (200mM) and 10% fetal bovine serum. Cultures were maintained at 37 °C in an atmosphere of 5% CO2. Assays were performed in 96-well plates, each well containing RPMI 1640 medium supplemented with 1% L-glutamine (200 mM), 10% fetal bovine serum, and 2 × 10^3 L-6 cells/well. Plates were incubated at 37 °C under a 5% CO2 atmosphere for 24 h. Compounds were dissolved in DMSO (10 mg/mL). After 24 h, serial drug dilutions of eleven 3-fold dilution steps covering a range from 100 to 0.002 μg/mL were prepared, and the plates were incubated at 37 °C under 5% CO2 for 70 h. After 70 h incubation, 10 μL of resazurin solution (12.5 mg resazurin in 100 mL 1xPBS) was added per well, and plates were incubated for an additional 2 h. After that, the plates were read with a Spectramax Gemini EM microplate fluorometer (Molecular Devices, San Jose, CA, USA) using an excitation wavelength of 536 nm and an emission wavelength of 588 nm. Data were treated according to [44] (see below). Podophyllotoxin served as a positive control.
as §1

[3] = system: Trypanosoma brucei rhodesiense (Tbr) STIB900 strain; experiment: in vitro antitrypanosomal assay, bloodstream forms, resazurin; settings: for SI(Tbr): Selectivity index IC50(Cytotox)/IC50(Tbr)
Method: Trypanosoma brucei rhodesiense (Tbr): The STIB900 strain is a derivative of the STIB704 strain isolated from a patient in Ifakara, Tanzania, in 1982 [43]. The bloodstream forms were cultivated as axenic culture in HMI-9 medium, supplemented with 15% heat-inactivated horse serum. Cultures were maintained at 37 °C in an atmosphere of 5% CO2. Test compounds were dissolved in DMSO (10 mg/mL), and serial drug dilutions of eleven 3-fold dilution steps covering a range from 100 to 0.002 μg/mL were prepared in a 96-well plate. Bloodstream-form of T. b rhodesiense strain STIB900 (2 × 10^3/well) was added into the wells. After 68 h incubation, 10 μL of resazurin solution (12.5 mg resazurin in 100 mL 1xPBS) was added per well, and plates were incubated for an additional 4 h. Subsequently, the plates were read with a Spectramax Gemini EM microplate fluorometer (Molecular Devices, San Jose, CA, USA) using an excitation wavelength of 536 nm and an emission wavelength of 588 nm. Data were treated according to [44] (see below). Melarsoprol was used as a positive control.
as §1

[4] = Plasmodium falciparum, NF54, read-out: IC50 Pf [µg/mL]
[5] = Trypanosoma brucei, pure compounds, tested as mono- or bis-trifluoroacetates where marked, read-out: IC50 Tbr (converted)
[6] = Trypanosoma brucei, values in brackets, calculated with the molecular masses of the corresponding salts, read-out: IC50 Tbr (converted)
[7] = Plasmodium falciparum, NF54, pure compounds, tested as mono- or bis-trifluoroacetates where marked, read-out: IC50 Pf (converted)
[8] = Plasmodium falciparum, NF54, values in brackets, calculated with the molecular masses of the corresponding salts, read-out: IC50 Pf (converted)
[9] = values in brackets, calculated with the molecular masses of the corresponding salts, read-out: IC50 Tbr (converted)
[10] = pure compounds, tested as mono- or bis-trifluoroacetates where marked

| Structure (SMILES) | IC50 at 70 h [2] | SI(Tbr) ([3]; pure compounds) | IC50 [3, 5] [µg/mL] | IC50 [3, 6] [µM] | IC50 [1, 7] [µg/mL] | IC50 [1, 8] [µM] | SI (Pf) ([1]; pure compounds) | further results |
| --- | --- | --- | --- | --- | --- | --- | --- | --- |
| CCN(CC)CCCC(C)Nc1ccnc2cc(Cl)ccc12 (stereo not shown) [Chloroquine, reference compound] |  |  |  |  |  |  |  | IC50 ([1]; Plasmodium falciparum, NF54, read-out: IC50 Pf): 0.002 µg/mL; IC50 [1, 4]: 0.002 µg/mL |
| CC1=CC(=O)CC(C)(C)C1CCC(C)N(C)C (stereo not shown) [Compound 1] | 47 µg/mL and 198 µM | 8 | 6.2 ± 0.9 | 26.2 | 0.93 ± 0.07 | 3.91 | 51 |  |
| CN[C@@H](C)[C@H]1CC[C@H]2[C@@H]3CC=C4C[C@@H](N(C)C)CC[C@]4(C)[C@H]3CC[C@]12C [Compound 2, 5,6-Dehydro-desacyl-epipachysamine A] | 19 µg/mL and 33 µM | 10 | 1.9 ± 0.2 | 3.2 | 0.898 ± 0.002 | 1.53 | 21 |  |
| CN[C@@H](C)[C@H]1CC[C@H]2[C@@H]3CC[C@H]4C[C@@H](N(C)C)CC[C@]4(C)[C@H]3CC[C@]12C [Compound 3, Desacyl-epipachysamine A] | 18 µg/mL and 30 µM |  | 2 ± 0.2 | 3.5 | 0.85 ± 0.03 | 1.44 | 21 |  |
| C[C@@H]([C@H]1CC[C@H]2[C@@H]3CC[C@H]4C[C@@H](NC(=O)c5cccnc5)CC[C@]4(C)[C@H]3CC[C@]12C)N(C)C [Compound 4, Epipachysamine B] | 5.2 µg/mL and 7.7 µM | 3 | 1.6 ± 0.5 | 2.4 | 2.3 ± 0.2 | 3.4 | 2 |  |
| C[C@@H]([C@H]1CC[C@H]2[C@@H]3CC=C4C[C@@H](NC(=O)c5cccnc5)CC[C@]4(C)[C@H]3CC[C@]12C)N(C)C [Compound 5, Pactermine A] | 5.8 µg/mL and 8.6 µM | 3 | 1.93 ± 0.06 | 2.85 | 0.91 ± 0.02 | 1.34 | 6 |  |
| CN[C@@H](C)[C@H]1CC[C@H]2[C@@H]3CC[C@H]4C[C@@H]([N+](C)(C)CCl)CC[C@]4(C)[C@H]3CC[C@]12C [Compound 6, N3-chloromethyl-desacyl-epipachysamine A] | 87 µg/mL and 136 µM | 74 | 1.2 ± 0.4 | 1.9 | 0.25 ± 0.03 | 0.39 | 346 |  |
| CNC1CCC2(C)C3CCC4(C)C(CCC4C(C)N(C)C)C3CCC2C1OC(=O)c1ccccc1 (stereo not shown) [Compound 7] | 10 µg/mL and 15 µM | 133 | 0.079 ± 0.001 | 0.11 | 0.45 ± 0.09 | 0.63 | 23 | IC50 [3, 9]: 0.112 µM |
| CN[C@@H]1CC[C@@]2(C)[C@@H](CC[C@@H]3[C@@H]2CC[C@]2(C)[C@@H]([C@H](C)N(C)C)CC[C@@H]32)C1 [Compound 8, Pachysamine A] | 10.4 µg/mL and 17.7 µM | 13 | 0.8 ± 0.1 | 1.3 | 1.82 ± 0.06 | 3.09 | 6 |  |
| CC(=O)[C@H]1CC[C@H]2[C@@H]3CCC4C[C@@H](N(C)C)CC[C@]4(C)[C@H]3CC[C@]12C (stereo partly drawn) [Compound 9, 3β-Dimethylamino-pregnane-20-one] |  | 3 | 2.21 ± 0.06 | 4.8 |  |  | 0.8 | IC50 at 70 h ([2]; L6 cells, values in brackets, calculated with the molecular masses of the corresponding salts, read-out: IC50 Cytotox (converted)): 14 µM; IC50 at 70 h ([2]; pure compounds, L6 cells, tested as mono- or bis-trifluoroacetates where marked, read-out: IC50 Cytotox (converted)): 6 ± 2 µg/mL; IC50 ([1]; Plasmodium falciparum, NF54, read-out: IC50 Pf (µM)): 18 µM; IC50 [1, 4]: 8 ± 2 µg/mL |
| CN[C@@H]1CC[C@]2(C)[C@H]3CC[C@]4(C)[C@@H]([C@H](C)N(C)C)CC[C@H]4[C@@H]3CC[C@H]2[C@@H]1OC(=O)C=C(C)C [Compound 10, Pachysandrine D] | 6.5 µg/mL and 9.5 µM | 9 | 0.69 ± 0.03 | 0.95 | 0.66 ± 0.13 | 1.01 | 10 | IC50 [3, 9]: 1.01 µM; IC50 ([1]; values in brackets, calculated with the molecular masses of the corresponding salts, read-out: IC50 Pf (converted)): 0.97 µM |
| C[C@@H]([C@H]1CC[C@H]2[C@@H]3CC[C@H]4[C@H](O)[C@@H](O)CC[C@]4(C)[C@H]3CC[C@]12C)N(C)C [Compound 11, Terminaline] | 28 µg/mL and 60 µM | 5 | 5.9 ± 0.3 | 12.4 | 3 ± 1 | 7 | 8 |  |
| C[C@@H]([C@H]1CC[C@H]2[C@@H]3CC[C@H]4C[C@@H](N(C)C)CC[C@]4(C)[C@H]3CC[C@]12C)N(C)C [Compound 12, N-methyl-desacyl-epipachysamine A] | 7 µg/mL and 11 µM | 3 | 2.3 ± 0.2 | 3.9 | 2.5 ± 0.3 | 4.1 | 3 |  |
| C[C@@H]([C@H]1CC[C@H]2[C@@H]3CC=C4C[C@@H](N(C)C)CC[C@]4(C)[C@H]3CC[C@]12C)N(C)C [Compound 13, Sarcodinine] | 11 µg/mL and 18 µM | 4 | 2.6 ± 0.4 | 4.3 | 4.6 ± 0.7 | 7.7 | 2 |  |
| CC(=O)N(C)[C@@H](C)[C@H]1CC[C@H]2[C@@H]3CC[C@H]4C[C@@H](N(C)C)CC[C@]4(C)[C@H]3CC[C@]12C [Compound 14, Epipachysamine A] | 12 µg/mL and 23 µM | 5 | 2.14 ± 0.05 | 4.14 | 18 ± 1 | 36 | 0.6 |  |
| C[C@@H]([C@H]1CC[C@H]2[C@@H]3CC[C@H]4C[C@]5(CC[C@]4(C)[C@H]3CC[C@]12C)c1ccccc1C(=O)N5C)N(C)C [Compound 15, Spiropachysine] | 7.3 µg/mL and 12.7 µM | 3 | 2.21 ± 0.04 | 3.83 | 3 ± 1 | 6 | 2 |  |
| Nc1nc(N)nc(Nc2ccc([As]3SCC(CO)S3)cc2)n1 (stereo not shown) [Melarsoprol, reference compound] |  |  |  |  |  |  |  | IC50 ([3]; Trypanosoma brucei, read-out: IC50 Tbr): 0.007 ± 0.002 µg/mL; IC50 ([3]; Trypanosoma brucei, read-out: IC50 Tbr [µg/mL]): 0.007 ± 0.002 µg/mL |
| COc1cc([C@@H]2c3cc4c(cc3[C@H](O)[C@H]3COC(=O)[C@H]23)OCO4)cc(OC)c1OC [Podophyllotoxin, reference compound] |  |  |  |  |  |  |  | IC50 at 70 h ([2]; crude extracts and acid/base fractions, L6 cells, mean of two determinations ± deviation, read-out: IC50 Cytotox (converted)): 0.009 ± 0.001 µg/mL |
| O=C(O)C(F)(F)F [Trifluoroacetate, reference compound] |  |  |  |  |  |  |  | IC50 Tbr [3, 10]: >100 µg/mL; IC50 Pf [1, 10]: >100 µg/mL |
